Read-outs that look alike come from different tables or passages of the source.

The subject of one series is diabetic rabbits. Nature of the series: Blood glucose levels in alloxan-diabetic rabbits after intravenous or intranasal insulin. It counts as in vivo, Male New Zealand White rabbits. Particulars: intravenous injection, 0.3 and 0.4 U/kg insulin, -30 to 300 minutes (FIG. 1).
The nature of series [1]: Serum insulin levels (radio immune assay) in diabetic rabbits. Conditions: intravenous injection, 0.3 and 0.4 U/kg insulin, diabetic rabbits (FIG. 2).
Protocol: The animals used in this study were Male New Zealand White rabbits weighing approximately 2.5 kg. (Charles River Labs, Amherst, Mass.). The animals were housed individually in cages and given standard animal chow and water. All animals were treated according to the Guiding Principles for Laboratory Animal Care of the American Physiologic Society.
The animals were made diabetic by intravenously injecting 80 mg/kg of Alloxan suspended in isotonic saline solution into the animal. The animals' blood glucose levels were monitored every two to three hours for the first three days. When glucose levels reached 500 mg/dl during the first three days, insulin (0.15 U/kg) was administered.
Prior to the experiment, the animals were fasted for 16 hours. The animals were then anesthetized by intravenously administering 30 mg/kg sodium pentobarbital. Forty minutes following the initial dose of pentobarbital, a second dose (6 mg/kg) was administered to the animals. […]
The animals were placed into groups of 3 to 7 animals for each experiment. […] Blood glucose levels and serum insulin levels were measured for each experiment. […]
Following the blood glucose analysis, serum samples were obtained by centrifuging the blood samples collected at 3000 rpm for 10 minutes. […] Serum insulin levels were determined using radio immune assay kits. […]
The test system of another series is rats. Conditions: cited from earlier work.

Consider insulin, for which, in the series on diabetic rabbits, the blood glucose levels entry is listed as “showed a fall in blood glucose levels”. In addition, the serum insulin levels result in series [1] is “serum insulin levels increased as the blood glucose levels fell”. Besides, the “increase in concentration of insulin required intranasally to reach plasma glucose levels similar to parenteral administration” value with rats (intranasal vs parenteral) is on record as 10 fold. Moreover, the plasma glucose levels result is reported as “decreased significantly” with rats (intravenous administration) and “only slightly decreased” with rats (oral administration).

The values above are taken from patent publication US6190699A, “Method of incorporating proteins or peptides into a matrix and administration thereof through mucosa” (NZL Corporation, priority 1998, dated 2001).
